Results on 30 compounds are retold here after patent US12583852B2, “Heterocycle derivative” (JW PHARMACEUTICAL CORPORATION, priority 2018, dated 2026).

The test system of the experiment is human dermal papilla cells. The experiment in a line: Promotion of proliferation of human dermal papilla cells (CellTiter-Glo Luminescent cell viability assay). The note with it: human dermal papilla cells (ScienCell, 2499); drug 0 to 30 μM; 48 hours; CellTiter-Glo luminescence; compared to DMSO-treated control group. The class given is cell-based. The procedure: The effect of promoting cell proliferation by the drug was analyzed using human dermal papilla cells (ScienCell, 2499). Human dermal papilla cells cultured using Mesenchymal Stem Cell Medium (ScienCell, 7501) medium were seeded at a density of 3×10^3 cells/well and in a volume of 100 μl in a 96-well plate, incubated overnight at 37° C. and 5% CO2, treated with the drug at different concentrations ranging from 0 to 30 μM in a volume of 100 μL, and incubated at 37° C. and 5% CO2 for 48 hours. CellTiter-Glo Luminescent cell viability assay was performed according to the manufacturer's protocol (Promega, G7573) to detect cell proliferation. Luminescence was measured using an Envision 2102 multilabeled reader (PerkinElmer) equipment, and the cell proliferation rate was analyzed by the activity of the drug-treated group compared to the DMSO-treated group (control group), which is a solvent of the drug.

“3-chloro-N-(2,3-dihydro-1H-inden-4-yl)-5-fluoro-1H-pyrazolo[3,4-b]pyridin-6-amine [Compound 8]”: the “Maximum DP cell proliferation (%)” value is recorded as 7.9%.

In the case of `Nc1n[nH]c2nc(Nc3cccc4c3CCC4)c(F)cc12` [Compound 3, N6-(2,3-dihydro-1H-inden-4-yl)-5-fluoro-1H-pyrazolo[3,4-b]pyridine-3,6-diamine], the “Maximum DP cell proliferation (%)” value is 23%.

In the case of `Nc1n[nH]c2nc(Nc3cccc4c3CCC4)ccc12` [Compound 4, N6-(2,3-dihydro-1H-inden-4-yl)-1H-pyrazolo[3,4-b]pyridine-3,6-diamine], the “Maximum DP cell proliferation (%)” value amounted to 4%. The same measure for `CC(C)(C)c1cccc(Nc2nc3[nH]nc(N)c3cc2F)c1` [Compound 5, N6-(3-(tert-butyl)phenyl)-5-fluoro-1H-pyrazolo[3,4-b]pyridine-3,6-diamine]: 7.4%. For the compound `Cn1ccc2c(Nc3nc4[nH]nc(N)c4cc3F)cccc21` [Compound 6, 5-fluoro-N6-(1-methyl-1H-indol-4-yl)-1H-pyrazolo[3,4-b]pyridine-3,6-diamine], the “Maximum DP cell proliferation (%)” value is 7%. As for `Nc1n[nH]c2nc(Nc3cccc4c3COC4)c(F)cc12` [Compound 9, N6-(1,3-dihydroisobenzofuran-4-yl)-5-fluoro-1H-pyrazolo[3,4-b]pyridine-3,6-diamine], the “Maximum DP cell proliferation (%)” value turned out to be 2.6%.

As to `Nc1n[nH]c2nc(Nc3cccc4occc34)c(F)cc12` [Compound 10, N6-(benzofuran-4-yl)-5-fluoro-1H-pyrazolo[3,4-b]pyridine-3,6-diamine], the “Maximum DP cell proliferation (%)” value is on record as 13%.

Turning to `Cc1cccc(Nc2nc3[nH]nc(N)c3cc2F)c1C` [Compound 12, N6-(2,3-dimethylphenyl)-5-fluoro-1H-pyrazolo[3,4-b]pyridine-3,6-diamine], the “Maximum DP cell proliferation (%)” value is 5.4%. The same measure for `CCOC(=O)c1cc2c(N)n[nH]c2nc1Nc1cccc2c1CCC2` [Compound 14, ethyl 3-amino-6-((2,3-dihydro-1H-inden-4-yl)amino)-1H-pyrazolo[3,4-b]pyridine-5-carboxylate]: 5.3%.

For the compound `Nc1n[nH]c2nc(Nc3cccc4c3CCC4)cnc12` [Compound 15, N6-(2,3-dihydro-1H-inden-4-yl)-1H-pyrazolo[3,4-b]pyrazine-3,6-diamine], the “Maximum DP cell proliferation (%)” value worked out at 24%. The figure for `Nc1n[nH]c2nc(Nc3cccc4c3CCC4)c(C(=O)O)cc12` [Compound 16, 3-amino-6-((2,3-dihydro-1H-inden-4-yl)amino)-1H-pyrazolo[3,4-b]pyridine-5-carboxylic acid] is 6.1%; for `Cc1c(Cl)c(Nc2cccc3c2CCC3)nc2[nH]nc(N)c12` [Compound 17, 5-chloro-N6-(2,3-dihydro-1H-inden-4-yl)-4-methyl-1H-pyrazolo[3,4-b]pyridine-3,6-diamine] it is 6%. The figure for `Cc1ccc(Nc2nc3[nH]nc(N)c3cc2F)cc1C` [Compound 18, N6-(3,4-dimethylphenyl)-5-fluoro-1H-pyrazolo[3,4-b]pyridine-3,6-diamine] is 7.8%; for `Nc1n[nH]c2nc(Nc3cccc4c3CCCC4)c(F)cc12` [Compound 19, 5-fluoro-N6-(5,6,7,8-tetrahydronaphthalen-1-yl)-1H-pyrazolo[3,4-b]pyridine-3,6-diamine] it is 9%. In the case of `CCCc1cc2c(N)n[nH]c2nc1Nc1cccc2c1CCC2` [Compound 21, N6-(2,3-dihydro-1H-inden-4-yl)-5-propyl-1H-pyrazolo[3,4-b]pyridine-3,6-diamine], the “Maximum DP cell proliferation (%)” value worked out at 3%. The figure for `Nc1n[nH]c2nc(Nc3cccc4c3CCC4)c(-c3ccccc3)cc12` [Compound 23, N6-(2,3-dihydro-1H-inden-4-yl)-5-phenyl-1H-pyrazolo[3,4-b]pyridine-3,6-diamine] is 5%; for `Nc1n[nH]c2nc(Nc3cccc4ccccc34)c(F)cc12` [Compound 24, 5-fluoro-N6-(naphthalen-1-yl)-1H-pyrazolo[3,4-b]pyridine-3,6-diamine] it is 8%. The same measure for `Cc1cc2c(c(Nc3nc4[nH]nc(N)c4cc3F)c1)CCC2` [Compound 27, 5-fluoro-N6-(6-methyl-2,3-dihydro-1H-inden-4-yl)-1H-pyrazolo[3,4-b]pyridine-3,6-diamine]: 6.8%; for `Nc1n[nH]c2nc(Nc3c4c(cc5c3CCC5)CCC4)c(F)cc12` [Compound 29, 5-fluoro-N6-(1,2,3,5,6,7-hexahydro-s-indacen-4-yl)-1H-pyrazolo[3,4-b]pyridine-3,6-diamine]: 4.6%; for `Cc1ccc2cccc(Nc3nc4[nH]nc(N)c4cc3F)c2c1` [Compound 31, 5-fluoro-N6-(7-methyl-1-naphthyl)-1H-pyrazolo[3,4-b]pyridine-3,6-diamine]: 3.2%. `Cc1c(Nc2nc3[nH]nc(N)c3cc2F)cccc1N(C)C` [Compound 33, N6-(3-(dimethylamino)-2-methylphenyl)-5-fluoro-1H-pyrazolo[3,4-b]pyridine-3,6-diamine]: the “Maximum DP cell proliferation (%)” value was 6.3%. The same measure for `Nc1n[nH]c2nc(CNc3cccc4c3CCC4)c(F)cc12` [Compound 34, 5-fluoro-6-[(indan-4-ylamino)methyl]-1H-pyrazolo[3,4-b]pyridin-3-amine]: 6.8%; for `Nc1n[nH]c2nc(Nc3cccc4ccccc34)ccc12` [Compound 35, N6-(naphthalen-1-yl)-1H-pyrazolo[3,4-b]pyridine-3,6-diamine]: 1.2%. The figure for `Nc1n[nH]c2nc(Nc3cccc4c3CCCC4)ccc12` [Compound 38, N6-(5,6,7,8-tetrahydronaphthalen-1-yl)-1H-pyrazolo[3,4-b]pyridine-3,6-diamine] is 2.2%.

Turning to `Nc1n[nH]c2nc(Nc3cccc(C(F)F)c3F)cnc12` [Compound 39, N6-[3-(difluoromethyl)-2-fluoro-phenyl]-1H-pyrazolo[3,4-b]pyrazine-3,6-diamine], the “Maximum DP cell proliferation (%)” value was 7.9%. The figure for `Nc1n[nH]c2nc(Nc3cccc4c3CCC4)c(Cl)c(Cl)c12` [Compound 42, 4,5-dichloro-N6-indan-4-yl-1H-pyrazolo[3,4-b]pyridine-3,6-diamine] is 16%. As for `Nc1n[nH]c2nc(Nc3cccc4c3CCCC4)cnc12` [Compound 45, N6-tetralin-5-yl-1H-pyrazolo[3,4-b]pyrazine-3,6-diamine], the “Maximum DP cell proliferation (%)” value stood at 7%. The same measure for `Nc1n[nH]c2nc(Nc3cccc4c3CC=C4)c(F)cc12` [Compound 48, 5-fluoro-N6-(1H-inden-7-yl)-1H-pyrazolo[3,4-b]pyridine-3,6-diamine]: 11%; for `CC1(C)CCc2c(Nc3nc4[nH]nc(N)c4cc3F)cccc21` [Compound 51, N6-(1,1-dimethyl-2,3-dihydro-1H-inden-4-yl)-5-fluoro-1H-pyrazolo[3,4-b]pyridine-3,6-diamine]: 8.7%.

In the case of `CC1(C)Cc2cccc(Nc3nc4[nH]nc(N)c4cc3F)c2C1` [Compound 52, N6-(2,2-dimethyl-2,3-dihydro-1H-inden-4-yl)-5-fluoro-1H-pyrazolo[3,4-b]pyridine-3,6-diamine], the “Maximum DP cell proliferation (%)” value turned out to be 11%.
